The test system of data set [1] is K562-Lucena 1. Kind of data set: Annexin V/propidium iodide cell death assay by flow cytometry, K562-Lucena 1. The settings on record: for induction of cell death (annexin-positive and annexin/PI-positive cells): Lucena, 0.25-1.0 μM. In general terms: Flow cytometry measures light scatter and fluorescence of single cells or particles in a stream.
Experimental: (§3) Cells were incubated for 24 hours with or without addition of the novel compounds. The index of apoptosis induced by the novel compounds was obtained as follows: percentage of cells in induced apoptosis (treated with the drugs) minus the percentage of cells in spontaneous apoptosis (not treated with the drugs) (Vasconcelos et aL, 2007; Vasconcelos et al., 2011).
(§4) To analyze the apoptosis induction potential by the new imatinib derivatives, annexin V/propidium iodide assay was used by flow cytometry.
(§5) To analyze death by apoptosis, the cells were incubated for 24 hours instead of 72 hours.
(§6) Cells without addition of any drug were used for the evaluation of spontaneous death. Cells incubated with DMSO (used to solubilize the compounds derived from imatinib) were used to discard the effect of this substance on cell death induction.
Data set [2] relates to K562. Kind of data set: MTT cell viability, K562 lineage.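 For all read-outs here: K562 cells (BCR-ABL expressing, CML derived), MTT formazan absorbance after 72 h exposure, compared with untreated control cells, at least three independent experiments run in triplicate.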 The following applies: for Cell viability percentage: average of three independent experiments.
Experimental: (§7) Cell viability was evaluated through the MTT method, after 72 hours of incubation with TKIs. MTT is a colorimetric method which measures mitochondrial dehydrogenase activity, based on the ability of living cells to reduce the salt, 3-(4,5-dimethylazole-2-yl)-2,5-diphenyltetrazolium bromide in the product formazan.
Cells were cultured in plates of 96 wells at the concentration of 1×10^4 cells/well in 200 μl of RPMI supplemented with 10% fetal bovine serum. 10 μl of each of the novel TKIs, or imatinib, previously diluted in RPMI medium, were added in different concentrations, and no molecule or imatinib was added in the control group. The plates were kept in a humid atmosphere containing 5% CO2 at 37° C. for 72 hours. Four hours before completion of the established time (72 hours), 20 μl of MTT (Sigma) (final concentration of 10 μg/ml) were added. The plates were kept in the oven for the remaining four hours. 180 μl of the supernatant were removed from each well, and then 150 μl of dimethylsulfoxide (DMSO; Sigma) were added, homogenizing thoroughly for complete dissolution of the salt crystals formed by mitochondrial metabolism, thus resulting in a coloration. […] The 96-well plate was read by the spectrophotometer (Spectramax Plus 384), using a wavelength of 570 nm. The results were analyzed through the absorbance of each well. The viability percentage was obtained through the following formula: [(Absorbance of cells treated with TKIs or imatinib/Absorbance of untreated cells)×100]. All the tests were performed in three different occasions. Three experiments, at least, independent, were carried out and triplicates were made for each concentration. By means of this method, we detected the cell inhibition percentage of each new molecule and we compared it with the percentage of viability reduction caused by imatinib.
Data set [3] relates to K562-Lucena 1. The following applies: MTT, 72 h; for viability reduction compared between K562 and Lucena lineages: FIG. 2A.
Experimental: as §7
(§8) Cells were cultured in plates of 96 wells at the concentration of 1×10^4 cells/well in 200 μl of RPMI supplemented with 10% fetal bovine serum. 10 μl of each of the novel TKIs, or imatinib, previously diluted in RPMI medium, were added in different concentrations, and no molecule or imatinib was added in the control group. The plates were kept in a humid atmosphere containing 5% CO2 at 37° C. for 72 hours. Four hours before completion of the established time (72 hours), 20 μl of MTT (Sigma) (final concentration of 10 μg/ml) were added. The plates were kept in the oven for the remaining four hours. 180 μl of the supernatant were removed from each well, and then 150 μl of dimethylsulfoxide (DMSO; Sigma) were added, homogenizing thoroughly for complete dissolution of the salt crystals formed by mitochondrial metabolism, thus resulting in a coloration. […] The 96-well plate was read by the spectrophotometer (Spectramax Plus 384), using a wavelength of 570 nm. The results were analyzed through the absorbance of each well. The viability percentage was obtained through the following formula: [(Absorbance of cells treated with TKIs or imatinib/Absorbance of untreated cells)×100]. All the tests were performed in three different occasions. Three experiments, at least, independent, were carried out and triplicates were made for each concentration.
(§9) The compounds were tested for their cytotoxicity in this lineage.
(§10) The viability of the Lucena cell lineage was evaluated after 72 h of incubation with the novel compounds, through the MTT assay.
In data set [4] the test system is K562-Lucena 1. Kind of data set: Cell cycle and DNA fragmentation analysis (propidium iodide, flow cytometry), K562-Lucena 1. In kind it is cell-based, human. The following applies: 24 h. As to the method:
(§1) The analysis of the impact of the new compounds on the phases of the cell cycle and on the induction of DNA fragmentation were carried out by DNA labeling with the fluorochrome propidium iodide. The assays were analyzed by flow cytometry and the results were analyzed in relation to the control (cells without treatment).
(§2) The induction of DNA fragmentation by the new compounds and by imatinib was assessed by flow cytometry. The analysis of cell cycle and DNA fragmentation was carried out upon 24 hours of incubation with the compounds.

The test system of data set [5] is K562. Kind of data set: Cell cycle and DNA fragmentation analysis (propidium iodide, flow cytometry), K562. Format: cell-based, human. The settings on record: K562, 24 h. As to the method:
as §1, §2

Data set [6] has as its system K562. Kind of data set: Annexin V/propidium iodide cell death assay by flow cytometry, K562. The settings on record: K562, 24 h, 0.25-1.0 μM.
Experimental: as §3, §4, §5, §6
The test system of data set [7] is K562-Lucena 1. Kind of data set: cells. The following applies: Homo sapiens, K562-Lucena 1, 72 h, read-out: reduction in the viability.
Experimental: as §7, §8, §9, §10
The test system of a further data set is CML. The settings on record: CML patients treated with imatinib (Hunter, 2007); cited from earlier work.
Where [8] appears, read: Homo sapiens, K562, 72 h, read-out: Cell viability percentage.

Entries after “also recorded” stand apart in the source; their conditions may differ.

`C[C@H]1[C@@H](OC(=O)CCC(=O)O)O[C@@H]2O[C@@]3(C)CC[C@H]4[C@H](C)CC[C@@H]1[C@@]24OO3.Cc1ccc(NC(=O)c2ccc(CN3CCN(C)CC3)cc2)cc1Nc1nccc(-c2cccnc2)n1` [Compound 03, N-(2-methyl-5-(4-((4-methylpiperazine-1-yl)methyl)benzamide)phenyl)-4-(pyridin-3-yl)pyrimidin-2-aminium-4-oxo-4-(((3R,5aS,6R,8aS,9R,10R,12R,12aR)-3,6,9-trimethyldecahydro-3H-3, 12-epoxy[1,2]dioxepin[4,3-yl]isochromen-10-yl)oxy)butanoate]: the “cell death rate in Lucena compared with K562” value in the data set with K562-Lucena 1 [1] (24 h) is on record as “greater cell death rate than the K562 lineage”. Further, the “induction of cell death (annexin-positive and annexin/PI-positive cells)” value in the data set with K562-Lucena 1 [1] (24 h) is given as “induced cell death, probably by apoptosis”; with K562 [6] it was “induced cell death, probably by apoptosis”. Moreover, the Cell viability percentage stood at 77.68% in the data set on K562 [2] (K562, MTT, 72 h, 0.05 μM); 82.43% in the data set with K562 [2] (K562, MTT, 72 h, 0.1 μM); 43.45% in the data set with K562 [2] (K562, MTT, 72 h, 0.25 μM); 20.16% in the data set on K562 [2] (K562, MTT, 72 h, 0.5 μM); 18.11% in the data set on K562 [2] (K562, MTT, 72 h, 1.0 μM); 16.73% with K562 [2] (K562, MTT, 72 h, 1.5 μM). Also, the Cell viability percentage in the data set with K562 [2] (K562, MTT, 72 h, 2.0 μM) worked out at 15.12%; in the data set with K562 [2] (K562, MTT, 72 h, 2.5 μM), 17.89%; with K562 [2] (K562, MTT, 72 h, 3.0 μM), 16.69%; with K562 [2] (K562, MTT, 72 h, 4.0 μM), 16.51%; with K562 [2] (K562, MTT, 72 h, 5.0 μM) it was 15.76%. Moreover, in the data set with K562 [2] (K562, MTT, 72 h, 0.25 μM), the “reduction in cell viability” value is recorded as “about 50%”. In addition, the “viability reduction compared between K562 and Lucena lineages” value in the data set on K562-Lucena 1 [3] is reported as “reduced the viability in the two lineages in a similar way”. The DNA fragmentation result in the data set on K562-Lucena 1 [4] is given as “induced DNA fragmentation”. Besides, the “increase in the number of cells in G0/G1 phase (halt in G0/G1)” value in the data set on K562 [5] is “about 10%”.
Turning to `C[C@H]1[C@@H](OC(=O)CCC(=O)O)O[C@@H]2O[C@@]3(C)CC[C@H]4[C@H](C)CC[C@@H]1[C@@]24OO3.Cc1ccc(N)cc1Nc1nccc(-c2cccnc2)n1` [Compound 04, 4-methyl-3-((4-(pyridin-3-yl)pyrimidin-2-yl)amino)benzenaminium-4-oxo-4-(((3R,5aS,6R,8aS,9R,10R,12R,12aR)-3,6,9-trimethyldecahydro-3H-3,12-epoxy[1,2]dioxepin[4,3-yl]isochromen-10-yl)oxy)butanoate], the “cell death rate compared with imatinib” value in the data set with K562-Lucena 1 [1] (Lucena lineage) is “higher”. Further, the “induction of cell death (annexin-positive and annexin/PI-positive cells)” value is reported as “induced cell death, probably by apoptosis” in the data set on K562-Lucena 1 [1] (24 h) and “induced cell death, probably by apoptosis” in the data set on K562 [6]. The Cell viability percentage in the data set with K562 [2] (K562, MTT, 72 h, 0.05 μM) stood at 97.54%; in the data set with K562 [2] (K562, MTT, 72 h, 0.1 μM) it was 86.68%; with K562 [2] (K562, MTT, 72 h, 0.25 μM), 87.20%; in the data set on K562 [2] (K562, MTT, 72 h, 0.5 μM), 79.53%; in the data set with K562 [2] (K562, MTT, 72 h, 1.0 μM) it was 85.68%; in the data set on K562 [2] (K562, MTT, 72 h, 1.5 μM) it was 69.52%. In addition, the Cell viability percentage was found to be 56.13% with K562 [2] (K562, MTT, 72 h, 2.0 μM); 53.28% in the data set on K562 [2] (K562, MTT, 72 h, 2.5 μM); 48.95% in the data set on K562 [2] (K562, MTT, 72 h, 3.0 μM); 48.17% with K562 [2] (K562, MTT, 72 h, 4.0 μM); 47.69% in the data set with K562 [2] (K562, MTT, 72 h, 5.0 μM). The reduction of viability with K562 [2] (K562, MTT, 72 h, 2.5 μM) is given as 50%. In the data set on K562-Lucena 1 [3], the “viability reduction compared between K562 and Lucena lineages” value is “more effective in the Lucena lineage; also recorded: greater percentage of reduction of cell viability than the K562 lineage”. Further, the “alterations in the cell cycle” value in the data set with K562 [5] was “did not foster alterations in the cell cycle”.
In the case of `Cc1ccc(NC(=O)c2ccc(CN3CCN(C)CC3)cc2)cc1Nc1nccc(-c2cccnc2)n1` [Imatinib, imatinib, reference compound], in the data set on K562 [2] (setting [8]), the viability (usually a per cent measure of how many cells are alive, often set against a control) at 0.05 µM was 93.5%; the viability at 0.1 µM is 63.4%; the viability at 0.25 µM is 54.5%; the viability at 0.5 µM came out at 20.1%. For the same molecule, in the data set with K562 [2] (setting [8]), the viability at 1 µM was found to be 16.3%, the viability at 1.5 µM is 14.3%, the viability at 2 µM was found to be 19.8% and the viability at 2.5 µM worked out at 19.4%. Also, in the data set on K562 [2] (setting [8]), the viability at 3 µM was 14.8%, the viability at 4 µM is 13.5% and the viability at 5 µM worked out at 15%. Moreover, the “concentration from which viability reduction reached a plateau” value in the data set with K562-Lucena 1 [3] (Lucena) stood at 1.5 µM. Further, in the data set on K562 [5], the DNA fragmentation result is “induced DNA fragmentation” and the “increase in the number of cells in G0/G1 phase (halt in G0/G1)” value was “about 10%”. The cytotoxicity at 0.25 µM with K562-Lucena 1 [7] is roughly 60%. The “patients reaching hematological remission” value in the data set on CML was roughly 100%.

Values taken from patent US20170226123A1, “Phenylaminopyrimidine-Derived Compounds, Method for Obtaining, Using Said Compounds in the Treatment of Cancer, and Treatment Methods” (Fundacao Oswaldo Cruz, priority 2014, published 2017).
